Structures can show the parent of a compound that is named as a salt.
Experiments:
[1] = vapor-liquid equilibrium still, isopropanol-water azeotrope with agent; conditions: for Relative Volatility: isopropanol from water, agent in vapor-liquid equilibrium still, water as overhead
Description: In every case, the starting material was the propanol-water azeotrope. The relative volatilities are listed for each of the agents.

[2] = vapor-liquid equilibrium still, n-propanol-water azeotrope with agent; conditions: for Relative Volatility: n-propanol from water; for liquid composition, n-propanol / liquid composition, water / vapor composition, n-propanol / vapor composition, water: butoxypropanol four hours, n-amyl acetate 14 hours
Description: The data in Table 2, 3, 5, 6 and 7 were obtained in a vapor-liquid equilibrium still. In every case, the starting material was the propanol-water azeotrope. The relative volatilities are listed for each of the agents.

[3] = glass perforated plate rectification column, n-propanol from water; format: physicochemical
Method: A solution comprising 288 grams of n-propanol and 112 grams of water was placed in the stillpot of the perforated plate column. When refluxing began, an extractive agent comprising n-butyl acetate was pumped into the column at a rate of 15/min/ml. The temperature of the extractive agent as it entered the column was 85° C. After establishing the feed rate of the extractive agent, the heat input to the n-propanol-water in the stillpot was adjusted to give a total reflux rate of 40 ml/min. After two hours of operation, the overhead and bottoms samples of approximately two ml. were collected and analysed.
Two hundred grams of the n-propanol-water azeotrope and 85 grams of n-amyl formate as the azeotrope former were charged to the 7.3 theoretical plate column and refluxed at total reflux for four hours.

[4] = glass perforated plate rectification column (7.3 theoretical plates), isopropanol from water; format: physicochemical; conditions: for Relative Volatility: extractive mode, 2 hrs, 7.3 theoretical plates; for Weight % Isopropanol, Bottoms / Weight % Water, Bottoms / Weight % Isopropanol, Overhead / Weight % Water, Overhead: rectification column
Method: A solution comprising 175 grams of isopropanol and 25 grams of water was placed in the stillpot of a 7.3 theoretical plate perforated plate column. […] The temperature of the extractive agent as it entered the column was 75° C. After establishing the feed rate of the extractive agent, the heat input to the isopropanol-water in the stillpot was adjusted to give a total reflux rate of 40 ml/min.
After two hours of operation, the overhead and bottoms samples of approximately two ml. were collected and analysed by gas chromatography.

[5] = as above; format: physicochemical; conditions: azeotropic
[6] = extractive distn., water as overhead
[7] = extractive distn., * brings n-propanol out as overhead

## CC(C)CCO [3-Methyl-1-butanol]
[1]
  Relative Volatility: 1.54

## CCCCCCO [Hexyl alcohol]
[1]
  Relative Volatility: 1.32
[2]; [6]
  Relative Volatility: 1.44

## CCCOCC(C)O (centres unmarked) [Propoxypropanol]
[3]; extractive mode, 2 hrs
  Relative Volatility: 1.21
[3]; rectification column
  Weight % Water, Bottoms: 30 Weight %
  Weight % n-Propanol, Bottoms: 70 Weight %
[3]; rectification column, overhead
  Weight % Water, Overhead: 63.5 Weight %
  Weight % n-Propanol, Overhead: 36.5 Weight %

## OCCOCCO [Diethylene glycol]
[1]
  Relative Volatility: 1.80

## CCCCOC(=O)CCC [Butyl butyrate]
[1]
  Relative Volatility: 1.39

## CCCCOC(C)=O [n-Butyl acetate]
[1]
  Relative Volatility: 1.28
[3]; extractive mode, 2 hrs, * n-propanol comes off as overhead
  Relative Volatility: 1.32
[3]; rectification column
  Weight % Water, Bottoms: 73.7 Weight %
  Weight % n-Propanol, Bottoms: 26.3 Weight %
[3]; rectification column, overhead
  Weight % Water, Overhead: 27.7 Weight %
  Weight % n-Propanol, Overhead: 72.3 Weight %
[2]; [7]
  Relative Volatility: 1.7

## CC(C)CCCCCCCO [Isodecyl alcohol]
[2]; [6]
  Relative Volatility: 1.30

## OCCO [Ethylene glycol]
[2]; [7]
  Relative Volatility: 1.7

## O=[N+]([O-])c1ccccc1 [Nitrobenzene]
[1]
  Relative Volatility: 1.32
[2]; [6]
  Relative Volatility: 1.21

## CCCCCCCCCCO [n-Decanol]
[1]
  Relative Volatility: 1.38

## OCCCCCO [1,5-Pentanediol]
[1]
  Relative Volatility: 1.22
[2]; [6]
  Relative Volatility: 1.22

## CCCC(C)=O [2-Pentanone]
[1]
  Relative Volatility: 1.38

## Butoxypropanol
[3]; rectification column
  Weight % Water, Bottoms: 15.9 Weight %
  Weight % n-Propanol, Bottoms: 84.1 Weight %
[3]; rectification column, overhead
  Weight % Water, Overhead: 50.1 Weight %
  Weight % n-Propanol, Overhead: 49.9 Weight %
[2]
  liquid composition, n-propanol: 77.2%
  liquid composition, water: 22.8%
  vapor composition, n-propanol: 60.5%
  vapor composition, water: 39.5%

## CCCCO [1-Butanol]
[4]
  Relative Volatility: 1.20
  Weight % Isopropanol, Bottoms: 87.9 Weight %
  Weight % Water, Bottoms: 12.1 Weight %
  Weight % Isopropanol, Overhead: 65.3 Weight %
  Weight % Water, Overhead: 34.7 Weight %

## CCCC(=O)OCC(C)C [Isobutyl butyrate]
[2]; azeotropic distn.
  Relative Volatility: 1.2

## CCCCCC(C)=O [2-Heptanone]
[1]
  Relative Volatility: 1.32
[2]; [6]
  Relative Volatility: 1.88

## COCCO [Ethylene glycol methyl ether]
[1]
  Relative Volatility: 1.60

## CC(C)COCC(C)O (centres unmarked) [Propylene glycol isobutyl ether]
[1]
  Relative Volatility: 1.29

## OCCCCCCO [1,6-Hexanediol]
[3]; extractive mode, 2 hrs
  Relative Volatility: 1.11
[3]; rectification column
  Weight % Water, Bottoms: 23.6 Weight %
  Weight % n-Propanol, Bottoms: 76.4 Weight %
[3]; rectification column, overhead
  Weight % Water, Overhead: 38.6 Weight %
  Weight % n-Propanol, Overhead: 61.4 Weight %
[2]; [6]
  Relative Volatility: 1.31

## C=COCCCC [Vinyl n-butyl ether]
[5]; bottoms
  Weight % Agent, Bottoms: 14.6 Weight %
[5]; overhead
  Weight % Agent, Overhead: 57.0 Weight %
[4]
  Weight % Isopropanol, Bottoms: 80.3 Weight %
  Weight % Water, Bottoms: 5.1 Weight %
  Weight % Isopropanol, Overhead: 28.5 Weight %
  Weight % Water, Overhead: 14.5 Weight %

## OC1CCCCCCCCCCC1 [Cyclododecanol]
[2]; [6]
  Relative Volatility: 1.43

## CC(=O)CCC(C)C [Methyl isoamyl ketone]
[1]
  Relative Volatility: 1.32

## CCCOC(=O)CCC [Propyl butyrate]
[1]
  Relative Volatility: 1.72
[1]; refluxed six hours
  liquid composition, isopropanol: 85.3%
  liquid composition, water: 14.7%
  vapor composition, isopropanol: 77.1%
  vapor composition, water: 22.9%
[2]; azeotropic distn.
  Relative Volatility: 3.6

## CCCCCOC=O [Amyl Formate]
[3]; azeotropic mode, 4 hrs
  Relative Volatility: 1.23
[3]; rectification column
  Weight % Water, Bottoms: 7.3 Weight %
  Weight % n-Propanol, Bottoms: 25.7 Weight %
[3]; rectification column, azeotropic
  Weight % Agent, Bottoms: 67.0 Weight %
[3]; rectification column, azeotropic, listed as n-amyl formate
  Weight % Agent, Bottoms: 67 Weight %
[3]; rectification column, overhead
  Weight % Water, Overhead: 40.3 Weight %
  Weight % n-Propanol, Overhead: 29.9 Weight %
[3]; rectification column, overhead, azeotropic
  Weight % Agent, Overhead: 29.8 Weight %

## CCCCCCC(C)O (centres unmarked) [2-Octanol]
[1]
  Relative Volatility: 1.30

## COc1ccccc1 [Anisole]
[1]
  Relative Volatility: 1.54
[2]; [6]
  Relative Volatility: 2.0

## CCCCC(=O)CC [3-Heptanone]
[2]; azeotropic distn.
  Relative Volatility: 4.3

## CC(=O)C(C)C [3-Methyl-2-butanone]
[1]
  Relative Volatility: 1.24

## O=C1OCCO1 [Ethylene carbonate]
[2]; [7]
  Relative Volatility: 1.3

## CCOCCOC(C)=O [Ethylene glycol ethyl ether acetate]
[2]; [6]
  Relative Volatility: 1.37

## CCCCCOC(C)=O [n-Amyl acetate]
[1]
  Relative Volatility: 1.30
[2]
  liquid composition, n-propanol: 67.3%
  liquid composition, water: 32.7%
  vapor composition, n-propanol: 58%
  vapor composition, water: 42%
[2]; azeotropic distn.
  Relative Volatility: 1.5

## CCCCCCCCCCCO [Undecyl alcohol]
[2]; [6]
  Relative Volatility: 1.39

## CC(C)COC(=O)C(C)C [Isobutyl isobutyrate]
[1]
  Relative Volatility: 1.61

## CCCCCC(=O)CC [3-Octanone]
[1]
  Relative Volatility: 1.22

## CC(O)c1ccccc1 (stereo not drawn) [alpha-Methyl benzyl alcohol]
[2]; [6]
  Relative Volatility: 1.48

## CCC(C)O (centres unmarked) [2-Butanol]
[1]
  Relative Volatility: 1.36

## N#Cc1ccccc1 [Benzonitrile]
[2]; azeotropic distn.
  Relative Volatility: 1.5

## CCOCCOCCOC(C)=O [Diethylene glycol ethyl ether acetate]
[2]; [6]
  Relative Volatility: 1.3

## CCCCOC(=O)c1ccccc1 [Butyl benzoate]
[1]
  Relative Volatility: 1.36

## CC(=O)CC(C)C [4-Methyl-2-pentanone]
[1]
  Relative Volatility: 1.36
[4]
  Relative Volatility: 1.45
  Weight % Isopropanol, Bottoms: 82.3 Weight %
  Weight % Water, Bottoms: 17.7 Weight %
  Weight % Isopropanol, Overhead: 23.2 Weight %
  Weight % Water, Overhead: 76.8 Weight %
[3]; extractive mode, 2 hrs
  Relative Volatility: 1.45
[2]; azeotropic distn.
  Relative Volatility: 1.3

## CCCCCCOC=O [n-Hexyl formate]
[1]
  Relative Volatility: 1.52

## CCC(=O)c1ccccc1 [Propiophenone]
[1]
  Relative Volatility: 1.31

## COC(=O)c1ccccc1 [Methyl benzoate]
[1]
  Relative Volatility: 1.50
[2]; [6]
  Relative Volatility: 1.70

## CC(=O)C=C(C)C [Mesityl oxide]
[1]
  Relative Volatility: 1.47
[2]; azeotropic distn.
  Relative Volatility: 1.2

## CCCCCCOC(C)=O [Hexyl acetate]
[1]
  Relative Volatility: 1.31
[2]; azeotropic distn.
  Relative Volatility: 3.4

## CCCC(=O)OCC [Ethyl butyrate]
[1]
  Relative Volatility: 1.46

## CC(=O)OCC(C)C [Isobutyl acetate]
[3]; rectification column
  Weight % Water, Bottoms: 58.8 Weight %
  Weight % n-Propanol, Bottoms: 41.2 Weight %
[3]; rectification column, overhead
  Weight % Water, Overhead: 26.1 Weight %
  Weight % n-Propanol, Overhead: 73.9 Weight %

Reference: patent publication US5085739A, “Separation of the propyl alcohols from water by azeotropic or extractive distillation” (priority 1991, dated 1992)
